Read-outs that look alike come from different tables or passages of the source. No end group written: not given here.
How the values were obtained:
HLA-A*02:01 molecule = molecular target: T1, HLA-A*02:01 molecule (Homo sapiens, UniProt P04439, D140Y/D185E/D98H/E176V/E277Q/G131W/G231S/I119V/I121R/I166T/I218V/L300P/L318F/N151K/N90K/P208A/P217A/Q86G/Q94H/R138H/R169H/T345S); test: Binding of peptide to HLA-A*02:01 molecule using cell line T2
T1 construct: using a cell line T2 (purchased from ATCC) expressing an HLA-A*02:01 molecule; host or cells: T2 cell line
Experimental: Measurement of binding ability of a peptide to an HLA-A*02:01 molecule, which is a product of an HLA-A*02:01 gene, was performed using a cell line T2 (purchased from ATCC) expressing an HLA-A*02:01 molecule.
T2 cells and purified β2m were added to a serial dilution series of a peptide whose binding ability was to be measured, and then the mixture was incubated at 37° C. for four hours. HLA-A*02:01 molecules whose expression level increased in a peptide concentration-dependent manner by this time point were stained using an association-type specific fluorescently labeled monoclonal antibody BB7.2.
Thereafter, the amount of fluorescence per cell was measured with a flow cytometer, and a dissociation constant Kd value was calculated by the method disclosed in the article (Udaka et al., Immunogenetics, 51, 816-828, 2000) by the present inventor.

HLA-A*24:02 molecule = HLA-A*24:02 molecule (Homo sapiens, UniProt P04439, D101N/D140Y/D185E/E176V/E190D/F33S/G103R/G107R/I119L/I121M/I306V/K335N/L105A/L180Q/L300P/N151K/N90K/Q86E/Q94H/R106L/R138H/R89G/T104I/T345S/V100E/W191G/Y123F); test: Binding of peptide to HLA-A*24:02 molecule using C1R-A24 cells
Experimental: Measurement of binding ability of a peptide to an HLA-A*24:02 molecule, which is a product of an HLA-A*24:02 gene, was performed using C1R-A24 cells expressing an HLA-A*24:02 molecule (Cells created by Professor Masafumi Takiguchi, Kumamoto University, was provided by Assistant Professor Masaki Yasukawa, Ehime University, with permission).
First, the C1R-A24 cells were exposed to acidic conditions at pH 3.3 for 30 seconds to dissociate and remove an endogenous peptide originally binding to an HLA-A*24:02 molecule and light chain β2m commonly associated with an HLA class I molecule. After neutralization, purified β2m was added to the C1R-A24 cells, and the mixture was added to a peptide dilution series and incubated on ice for four hours.
Thereafter, the number of MHC-peps for each C1R-A24 cell (proportional to a fluorescence intensity of the fluorescent antibody) was quantitatively measured using a fluorescence cell analyzer FACScan (Becton-Dickinson).

HLA-A*02:06 molecule = molecular target: T2, HLA-A*02:06 molecule (Homo sapiens, UniProt P04439, D140Y/D185E/D98H/E176V/E277Q/F33Y/G131W/G231S/I119V/I121R/I166T/I218V/L300P/L318F/N151K/N90K/P208A/P217A/Q86G/Q94H/R138H/R169H/T345S); test: Binding of peptide to HLA-A*02:06 molecule using RA2.6 cells
T2 construct: expressed in transfected cells; host or cells: RA2.6 cells (mouse TAP-deficient RMAS with HLA-A*02:06 cDNA)
Experimental: Measurement of binding ability of a peptide to an HLA-A*02:06 molecule, which is a product of an HLA-A*02:06 gene, was performed using RA2.6 cells (a cell line newly created at Kochi University) obtained by introducing cDNA of the HLA-A*02:06 gene into RMAS, which is a mouse transporter associated with antigen processing (TAP)-deficient cell line.
A fluorescently labeled monoclonal antibody BB7.2 that specifically recognizes a peptide binding type HLA-A*02:06 molecule was added thereto, and the mixture was incubated on ice for 20 minutes to stain the cells.

[1] = Table 2, dissociation constant Kd value (−log Kd value), >−3.0 = no significant binding ability, read-out: Measured value of allele A*02:01 (converted)
[2] = Table 4, Kd value (−log Kd value), smaller than −3 = binding property, read-out: Measured value of allele A*02:01 (converted)
[3] = Table 2, dissociation constant Kd value (−log Kd value), >−3.0 = no significant binding ability, read-out: Measured value of allele A*24:02 (converted)
[4] = Table 4, Kd value (−log Kd value), smaller than −3 = binding property, read-out: Measured value of allele A*24:02 (converted)
[5] = Table 2, dissociation constant Kd value (−log Kd value), >−3.0 = no significant binding ability, read-out: Measured value of allele A*02:06 (converted)

Sequence | Kd (HLA-A*02:01 molecule; [1]) | Kd (HLA-A*24:02 molecule; [3]) | Kd (HLA-A*24:02 molecule; [4]) | Kd (HLA-A*02:06 molecule; [5]) | further results
VLLQQFQTA [compound 15] | 19.3 µM | 2.81 µM | – | 3.4 µM | –
ALQPPCPNL [compound 31] | – | – | – | – | Kd (HLA-A*02:01 molecule): 7.44 µM; Kd (HLA-A*24:02 molecule; Measured value of allele A*24:02, Table 2, dissociation constant Kd value (−log Kd value), >−3.0 = no significant binding ability): 4.94 µM; Kd (HLA-A*02:06 molecule): 23.1 µM
VMSHHGEKL [compound 19] | 8.32 µM | 0.793 µM | – | 50.4 µM | –
LMITRKSFI [compound 17] | 6.26 µM | 0.972 µM | – | 29.3 µM | –
ALLAPAVLL [compound 7] | 0.216 µM | 1.09 µM | – | 1.43 µM | –
KFLEAFHEV [compound 8] | 1.17 µM | 0.133 µM | – | 1.56 µM | –
SLVLTWAAL [compound 14] | 2.36 µM | 4.89 µM | – | 0.572 µM | –
EAIDGYITL [compound 47] | > 1000 µM | 2.91 µM | – | 18.9 µM | –
LTITRKSFI [compound 45] | > 1000 µM | 15 µM | – | 162 µM | –
YTYDPPTTI [compound 3] | 0.336 µM | 3.11 µM | – | – | Kd (HLA-A*02:01 molecule; [2]): 3.36 µM; Kd (HLA-A*02:06 molecule; Table 4, Kd value (−log Kd value), smaller than −3 = binding property, read-out: Measured value of allele A*02:06 (converted)): 0.669 µM
LIEEHGATL [compound 40] | 31.9 µM | > 1000 µM | > 1000 µM | 15.3 µM | –
CIDEHQWQL [compound 28] | 14 µM | 332 µM | – | 5.62 µM | –
CLDEHQWQL [compound 9] | 0.216 µM | 1.36 µM | – | 0.474 µM | –
TLTAWQHGL [compound 33] | – | – | – | – | Kd (HLA-A*02:01 molecule): 1.11 µM; Kd (HLA-A*24:02 molecule): 20.1 µM; Kd (HLA-A*02:06 molecule): 1.42 µM

The next lines start with results.

Kd (HLA-A*02:01 molecule; [1]) | Kd (HLA-A*24:02 molecule; [3]) | Kd (HLA-A*24:02 molecule; [4]) | Kd (HLA-A*02:06 molecule; [5]) | Sequence | further results
> 1000 µM | 5.36 µM | 5.36 µM | > 1000 µM | TVLVPPRNL [compound 48] | Kd (HLA-A*02:01 molecule; [2]): > 1000 µM; Measured value of allele A*02:06 (HLA-A*02:06 molecule; Table 4, Kd value (−log Kd value), smaller than −3 = binding property): >−3
> 1000 µM | 80.3 µM | – | > 1000 µM | CDLSSFEFF [compound 58] | –
> 1000 µM | > 1000 µM | > 1000 µM | 32 µM | LAEEHGATL [compound 61] | –
> 1000 µM | > 1000 µM | > 1000 µM | > 1000 µM | LPPARHSTI [compound 76] | –
> 1000 µM | > 1000 µM | > 1000 µM | > 1000 µM | ILSDHQQSQ [compound 70] | –
> 1000 µM | > 1000 µM | > 1000 µM | > 1000 µM | ARHSTIPLV [compound 77] | –
> 1000 µM | > 1000 µM | > 1000 µM | 389 µM | VMQIDGVQP [compound 67] | –
> 1000 µM | > 1000 µM | > 1000 µM | > 1000 µM | IFADVSSST [compound 78] | –
> 1000 µM | > 1000 µM | > 1000 µM | 82.1 µM | AQISAYRTC [compound 50] | –
> 1000 µM | > 1000 µM | > 1000 µM | 218 µM | GTHLDAGTV [compound 51] | –
> 1000 µM | 0.301 µM | – | > 1000 µM | GYITCERPF [compound 65] | –
7.73 µM | > 1000 µM | > 1000 µM | > 1000 µM | VLPPARHST [compound 54] | –
> 1000 µM | > 1000 µM | > 1000 µM | > 1000 µM | GSPDEFSND [compound 72] | –
> 1000 µM | 23.4 µM | – | > 1000 µM | GRVMQIDGV [compound 68] | –
> 1000 µM | 3.87 µM | – | > 1000 µM | VFGRVMQID [compound 66] | –

Reference: patent US20250236642A1, “PHARMACEUTICAL COMPOSITION FOR TREATMENT OR PREVENTION OF ADULT T-CELL LEUKEMIA” (NEC Corporation, priority 2022, published 2025)
